Values of other authors, collected in patent US5629431A, “Inhibitors of retroviral proteases” (Hoechst Aktiengesellschaft, priority 1989, dated 1997).
Square brackets hold non-standard residues; d marks the D form. Peptide text beside a SMILES is read from it. * marks the point of attachment. Sta = CC(C)C[C@H](N)[C@@H](O)CC(=O)O; Isovaleryl = CC(C)CC(=O)*

Legend:
[1] = system: formation of the nuclear protein p24 and activity of reverse transcriptase; details: high doses; in the biosynthesis (v. d. Helm et al., FEBS Lett. 247, 1989)
HIV protease = details: literature value (Katoh et al., Nature 329, 1987); read-out: IC50 against HIV protease

In the case of `CC(C)CC(=O)N[C@H](C(=O)N[C@H](C(=O)N[C@@H](CC(C)C)[C@@H](O)CC(=O)N[C@@H](C)C(=O)N[C@@H](CC(C)C)[C@@H](O)CC(=O)O)C(C)C)C(C)C` [pepstatin A] (Isovaleryl-VV[Sta]A[Sta]-OH), the “activity of reverse transcriptase” value [1] is given as “reduction”, the “formation of the nuclear protein p24” value [1] is given as “reduction” and the IC50 (HIV protease) is given as […].
